Values joined by “and” are separate entries in the source; they are usually repeats but may differ in a detail not shown here. Identical values can stand only once. Like-named read-outs stand apart in the source and are kept apart here.
Assays:
GACF327W [1] = biological target: T1, GACF327W (Mus musculus, UniProt D3Z7P3, F327W); assay: biochemical; settings: KD from fluorescence quenching of the GACF327W mutant, 100 nM GACF327W; fit to a bimolecular interaction equation
T1 sequence (D3Z7P3 73-603 isoform D3Z7P3-2 F327W): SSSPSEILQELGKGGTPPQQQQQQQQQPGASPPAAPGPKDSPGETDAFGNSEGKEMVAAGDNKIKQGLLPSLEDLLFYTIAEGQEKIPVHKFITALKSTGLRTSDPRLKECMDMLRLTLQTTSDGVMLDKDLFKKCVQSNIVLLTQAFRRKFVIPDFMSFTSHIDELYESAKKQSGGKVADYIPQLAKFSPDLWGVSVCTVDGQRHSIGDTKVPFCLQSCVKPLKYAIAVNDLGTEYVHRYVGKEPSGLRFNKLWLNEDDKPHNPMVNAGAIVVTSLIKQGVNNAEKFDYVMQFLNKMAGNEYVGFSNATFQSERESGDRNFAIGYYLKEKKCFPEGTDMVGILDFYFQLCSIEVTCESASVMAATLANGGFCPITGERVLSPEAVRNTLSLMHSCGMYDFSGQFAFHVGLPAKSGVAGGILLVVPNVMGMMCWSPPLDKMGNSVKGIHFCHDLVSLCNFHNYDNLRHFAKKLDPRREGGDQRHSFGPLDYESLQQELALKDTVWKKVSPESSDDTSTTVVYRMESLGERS

GAC tetramers = biological target: T2, GAC tetramers (Mus musculus, UniProt D3Z7P3); settings: for FRET signal (GAC tetramer formation): 25 nM 488-labeled GAC, 75 nM QSY9-GAC; for reversibility of bound GAC tetramers: after addition of excess unlabeled GAC subunits
T2 sequence (D3Z7P3 73-603 isoform D3Z7P3-2): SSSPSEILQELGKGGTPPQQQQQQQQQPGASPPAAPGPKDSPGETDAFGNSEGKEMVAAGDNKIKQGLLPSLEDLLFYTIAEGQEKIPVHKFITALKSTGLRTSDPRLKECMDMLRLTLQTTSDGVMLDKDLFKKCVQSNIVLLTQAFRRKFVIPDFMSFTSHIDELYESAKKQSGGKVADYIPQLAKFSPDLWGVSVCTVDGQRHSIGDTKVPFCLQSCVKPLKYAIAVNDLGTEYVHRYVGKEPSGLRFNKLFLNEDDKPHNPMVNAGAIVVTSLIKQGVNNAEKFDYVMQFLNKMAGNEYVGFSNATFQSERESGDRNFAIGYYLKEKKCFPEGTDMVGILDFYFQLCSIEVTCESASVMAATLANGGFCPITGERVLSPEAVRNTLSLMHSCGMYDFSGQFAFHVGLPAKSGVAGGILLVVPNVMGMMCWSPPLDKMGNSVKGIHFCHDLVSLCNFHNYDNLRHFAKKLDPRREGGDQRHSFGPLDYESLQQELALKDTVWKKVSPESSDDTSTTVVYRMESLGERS

GACF327W [2] = biological target: T1, GACF327W; settings: for enhancement of the tryptophan fluorescence of the F327W mutant: addition of anionic activator, 50 mM anion, 400 nM F327W in FIG. 10A
GAC [3] = biological target: T3, GAC (Mus musculus, UniProt D3Z7P3); assay: biochemical
T3 sequence (D3Z7P3 73-603 isoform D3Z7P3-2): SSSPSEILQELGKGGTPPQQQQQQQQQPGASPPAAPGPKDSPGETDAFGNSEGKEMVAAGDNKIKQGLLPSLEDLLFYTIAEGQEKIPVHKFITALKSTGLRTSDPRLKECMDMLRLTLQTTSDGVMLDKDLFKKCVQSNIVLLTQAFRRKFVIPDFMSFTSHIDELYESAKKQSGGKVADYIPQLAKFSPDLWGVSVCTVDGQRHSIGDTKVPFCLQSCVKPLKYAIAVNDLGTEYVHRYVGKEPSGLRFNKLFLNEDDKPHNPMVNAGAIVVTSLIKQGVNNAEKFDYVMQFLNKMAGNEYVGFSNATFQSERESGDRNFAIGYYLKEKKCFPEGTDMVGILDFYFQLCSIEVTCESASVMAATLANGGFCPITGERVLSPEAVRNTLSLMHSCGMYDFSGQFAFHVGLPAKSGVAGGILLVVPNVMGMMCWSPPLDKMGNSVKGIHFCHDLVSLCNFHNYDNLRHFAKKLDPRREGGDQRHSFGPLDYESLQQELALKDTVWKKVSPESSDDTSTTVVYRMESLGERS

GAC [4] = biological target: T3, GAC; assay: Real-time NADH fluorescence assay of GAC activity; type: biochemical; set-up: residues 73-603) was cloned into a pET28a vector; His tag with thrombin cleavage site (N); made in house; settings: 1 μM inhibitor, 10 nM GAC, 20 mM glutamine, 100 mM HPO4^2−
Text: FIG. 4A is a spectra of real-time NADH assays of GAC activity, in which the increased NADH fluorescence (in arbitrary units (AU)) results from the coupled reaction where GAC catalyzes glutamate production, and GDH converts glutamate to α-ketoglutarate and NAD to NADH. […] FIG. 4B is a graph of relative glutaminase activity. […] Error bars represent the standard deviation of three independent experiments.

WT GAC = biological target: T4, WT GAC (Mus musculus, UniProt D3Z7P3); settings: 5 mg/ml WT GAC; 50 mM anion in the running buffer
T4 sequence (D3Z7P3 73-603 isoform D3Z7P3-2): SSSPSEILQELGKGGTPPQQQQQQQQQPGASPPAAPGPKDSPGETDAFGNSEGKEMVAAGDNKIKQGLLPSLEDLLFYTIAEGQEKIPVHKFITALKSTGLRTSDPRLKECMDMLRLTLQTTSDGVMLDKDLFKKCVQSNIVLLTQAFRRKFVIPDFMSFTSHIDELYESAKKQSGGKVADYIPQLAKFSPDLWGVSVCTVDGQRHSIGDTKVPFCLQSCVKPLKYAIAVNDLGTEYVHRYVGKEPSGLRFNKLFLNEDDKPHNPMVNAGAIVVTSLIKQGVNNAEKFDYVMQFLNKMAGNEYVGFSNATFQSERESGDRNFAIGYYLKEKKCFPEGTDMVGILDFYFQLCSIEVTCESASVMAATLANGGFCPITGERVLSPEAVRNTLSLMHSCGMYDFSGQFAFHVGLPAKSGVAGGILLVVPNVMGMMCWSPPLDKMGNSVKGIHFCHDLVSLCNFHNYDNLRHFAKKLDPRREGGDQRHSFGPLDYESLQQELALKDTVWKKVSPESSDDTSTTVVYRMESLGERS

GAC [5] = biological target: T3, GAC; settings: for Kd: read-out: KD values from glutaminase activity with increasing concentrations of anion, 50 nM WT GAC, allosteric activation
[6] = Catalytic properties of GAC proteins (phosphate-stimulated glutaminase activity); type: biochemical, mouse

## O=C(Cc1cccc(OC(F)(F)F)c1)Nc1ccc(CCCCc2nnc(NC(=O)Cc3ccccn3)s2)nn1 [CB-839]
GACF327W [1]
  Kd: 0.034 µM and 0.03 µM
GAC tetramers; 500 nM inhibitor
  FRET signal (GAC tetramer formation): rapidly increases the FRET signal
GAC tetramers
  reversibility of bound GAC tetramers: resistant to dissociation
GACF327W [2]; 1 μM BPTES in FIG. 6B, increasing concentrations in FIGS. 8A-B
  change in tryptophan fluorescence of GACF327W upon addition of inhibitor: dose-dependent quenching
GACF327W [2]; real-time F327W fluorescence
  binding kinetics (comparison): slower binding kinetics than BPTES
GAC [3]
  IC50: 0.023 ± 0.001 µM
GAC [4]
  inhibition of phosphate-stimulated GAC activity (initial rate analysis): stronger inhibition

## O=P(O)(O)O [inorganic phosphate]
GAC tetramers; 100 mM anion
  FRET signal (GAC tetramer formation): rapidly increases the FRET signal
GAC tetramers
  reversibility of bound GAC tetramers: readily reversible
GACF327W [2]
  enhancement of the tryptophan fluorescence of the F327W mutant: 25%
WT GAC
  oligomer size from molecular weight distribution: greater than 32 mers
GAC [5]
  Kd: 20600 ± 400 µM

## O=S(=O)(O)O [sulfate]
GAC tetramers; 100 mM anion
  FRET signal (GAC tetramer formation): rapidly increases the FRET signal
GAC tetramers
  reversibility of bound GAC tetramers: readily reversible
GACF327W [2]
  enhancement of the tryptophan fluorescence of the F327W mutant: 15%
GAC [5]
  Kd: 36400 ± 3000 µM
GAC [5]; relative to phosphate (HPO4^2−)
  effectiveness in activating GAC relative to phosphate: −50%

B1: WT GAC: recombinant wild-type mouse glutaminase C, NP_001106854.1, residues 73-603 (protein)
chain: SSSPSEILQELGKGGTPPQQQQQQQQQPGASPPAAPGPKDSPGETDAFGNSEGKEMVAAGDNKIKQGLLPSLEDLLFYTIAEGQEKIPVHKFITALKSTGLRTSDPRLKECMDMLRLTLQTTSDGVMLDKDLFKKCVQSNIVLLTQAFRRKFVIPDFMSFTSHIDELYESAKKQSGGKVADYIPQLAKFSPDLWGVSVCTVDGQRHSIGDTKVPFCLQSCVKPLKYAIAVNDLGTEYVHRYVGKEPSGLRFNKLFLNEDDKPHNPMVNAGAIVVTSLIKQGVNNAEKFDYVMQFLNKMAGNEYVGFSNATFQSERESGDRNFAIGYYLKEKKCFPEGTDMVGILDFYFQLCSIEVTCESASVMAATLANGGFCPITGERVLSPEAVRNTLSLMHSCGMYDFSGQFAFHVGLPAKSGVAGGILLVVPNVMGMMCWSPPLDKMGNSVKGIHFCHDLVSLCNFHNYDNLRHFAKKLDPRREGGDQRHSFGPLDYESLQQELALKDTVWKKVSPESSDDTSTTVVYRMESLGERS
modifications: left off: small tags and cut ends
[6]
  Km: 16.4 ± 0.4 mM
  Vmax: 453 ± 8 µmol/min

B2: GACF327W: mutant mouse GLS protein (GAC) with phenylalanine to tryptophan substitution at position 327 (protein)
chain: MMRLRGSAMLRELLLRPPAAVGAVLRRAQPLGTLCRRPRGGSRPTAGLVAAARLHPWWGGGGRAKGPGAGGLSSSPSEILQELGKGGTPPQQQQQQQQQPGASPPAAPGPKDSPGETDAFGNSEGKEMVAAGDNKIKQGLLPSLEDLLFYTIAEGQEKIPVHKFITALKSTGLRTSDPRLKECMDMLRLTLQTTSDGVMLDKDLFKKCVQSNIVLLTQAFRRKFVIPDFMSFTSHIDELYESAKKQSGGKVADYIPQLAKFSPDLWGVSVCTVDGQRHSIGDTKVPFCLQSCVKPLKYAIAVNDLGTEYVHRYVGKEPSGLRFNKLWLNEDDKPHNPMVNAGAIVVTSLIKQGVNNAEKFDYVMQFLNKMAGNEYVGFSNATFQSERESGDRNFAIGYYLKEKKCFPEGTDMVGILDFYFQLCSIEVTCESASVMAATLANGGFCPITGERVLSPEAVRNTLSLMHSCGMYDFSGQFAFHVGLPAKSGVAGGILLVVPNVMGMMCWSPPLDKMGNSVKGIHFCHDLVSLCNFHNYDNLRHFAKKLDPRREGGDQRHSFGPLDYESLQQELALKDTVWKKVSPESSDDTSTTVVYRMESLGERS
modifications: Mouse GAC with F327W substitution
[6]
  Km: 15 ± 1.7 mM
  Vmax: 435 ± 19 µmol/min

From US10767212B2, “Method of screening compounds” (Cornell University, priority 2016, dated 2020)
